Measurements: patent US20160228434A1, “TREATMENT OF DISEASES CAUSED BY ABNORMAL LYMPHOCYTE FUNCTION WITH AN HDAC6 INHIBITOR” (priority 2013, published 2016)
Entries after “also recorded” stand apart in the source; their conditions may differ.

Key:
Assay type in all cases: in vivo
NZB/W mice [1] = test: Survival rate and disease progression (body weight, proteinuria, spleen weight) in NZB/W mice; settings: for proteinuria: every 2 weeks
Experimental: (§1) NZB/W mice were injected intraperitoneally 5 days/week with the vehicle control (DMSO), ACY-738 treatment at 5 mg/kg (low-dose), or ACY-738 treatment at 20 mg/kg (high-dose) beginning at 22-weeks-of-age until euthanization at 38 weeks-of-age. ACY-738 was received from Acetylon Pharmaceuticals for use in all studies. Proteinuria and weight were measured every 2 weeks and blood was collected every four weeks for sera analysis. Proteinuria was measured by a standard semi-quantitative test using Siemens Uristix dipsticks (Siemens Healthcare, Deerfield, Ill., USA). Results were quantified according to the manufacturer's instructions and scored as follows: dipstick reading of 0 mg/dL=0, trace=1, 30-100 mg/dL=2, 100-300 mg/dL=3, 300-2000 mg/dL=4, and 2000+ mg/dL=5.
However, half of the NZB/W mice receiving the vehicle control alone died before termination of the study at 38 weeks-of-age (FIG. 6 A). Body weight increased as NZB/W mice aged following treatment with ACY-738. Vehicle control-treated NZB/W mice experienced weight loss concomitantly with increased proteinuria (FIG. 6 B).
Throughout the treatment period, NZB/W mice were monitored for changes in proteinuria and body weight.
Because SLE is characterized by enlargement of the spleen, splenomegaly was assessed in mice following euthanization by determining the total spleen weight along with the spleen: body weight ratio. Both spleen weight and spleen: body weight ratio were decreased following HDAC6 inhibition in a concentration dependent manner (FIG. 6 D-E).

[2] = system: sera anti-dsDNA, IgG, IgG2a, IgG2b, IgM; test: Sera anti-dsDNA and Ig isotype levels by ELISA in treated NZB/W mice
Experimental: as §1
Sera were collected prior to initiation of treatment at 22 weeks-of-age and every 4 weeks until euthanization. The mice were anesthetized using isoflurane (Piramal Healthcare, Mumbai, Maharashtra, India) and bled from the retro-orbital sinus. Blood was allowed to clot for 2 hours and then centrifuged for 15 min at 10,000×g. The levels of sera antibodies to dsDNA were measured by ELISA. Sera samples were added to the plate at a 1:100 dilution, followed by a two-fold serial dilution. The plate was read at 380 nm on a Spectramax 340PC microplate spectrophotometer (Molecular Devices, Sunnyvale, Calif., USA). A final dilution of 1:800 was reported.

[3] = system: glomerular IL-6, IL-10 and TGF-β mRNA; test: Glomerular IL-6, IL-10 and TGF-β mRNA by real-time RT-PCR in treated NZB/W mice; settings: 38-week-old NZB/W mice
Experimental: as §1
RNA was isolated using the mirVana miRNA isolation kit according to the manufacturer's protocol (Applied Biosystems, Carlsbad, Calif., USA). The eluates were quantified on a spectrophotometer (Nanodrop, Thermo Scientific, Waltham, Mass., USA). An aliquot was taken and diluted to 1 ng/μL for real-time RT-PCR. The eluted RNA was stored at −80° C.
IL-6, IL-10 and TGF-β mRNA expression were measured using TaqMan Gene Expression assays (Applied Biosystems, Carlsbad, Calif., USA). The […] using the endogenous control GAPDH, and then the ΔCT was determined by calculating the fold change in expression between the NZB/W mice treated with ACY-738 and the DMSO-treated controls. All samples were run in triplicate.
The cortical tissue was isolated from one kidney of each mouse and pooled by treatment group. Briefly, cortical tissue was pressed through grading sieves and resuspended in 750 U/mL Worthington type I collagenase at 37° C. for 20 min. Glomerular cells were pelleted, resuspended in RNAlater (QIAGEN, Valencia, Calif., USA), and stored at −20° C. until RNA isolation.
Following euthanization, glomeruli were isolated from the kidneys and RNA was extracted. Relative glomerular mRNA expression of IL-10, TGF-β, and IL-6 were determined using real-time RT-PCR.

[4] = system: glomerular IgG and C3 deposition; test: Glomerular immune complex (IgG, C3) deposition by immunofluorescence in treated NZB/W mice; settings: for glomerular C3 deposition (score 0-4, fluorescence) / glomerular IgG deposition (score 0-4, fluorescence): vs vehicle control
Experimental: as §1
One half of each kidney was placed in OCT media and snap-frozen in a slurry containing dry ice and 2-methylbutane (Fisher Scientific, Hampton, N.H., USA). Frozen kidney sections were cut into […] sections and stained with goat anti-mouse IgG conjugated to FITC (Pierce) diluted 1:100 or goat anti-mouse C3-FITC (Pierce, Thermo Fisher Scientific, Waltham, Mass., USA) diluted 1:100. Kidney sections were examined by fluorescent microscopy. Sections were scored (0-4) for immune complex deposition by a pathologist in a blinded manner.
5 μM kidney sections were stained with FITC-conjugated C3 or IgG and assessed for fluorescence intensity. (see FIGS. 10A and 10B).

NZB/W mice [5] = test: SLE-associated renal pathology (PAS-stained kidney sections, glomerular score) in treated NZB/W mice
Experimental: as §1
At the time of euthanization, the kidneys were removed and cut in half. One half of the kidney from each mouse was fixed in formalin, embedded in paraffin, sectioned, and stained with Periodic acid-Schiff (PAS). Kidney sections were scored (0-4) for glomerular proliferation, inflammation, crescent formation, necrosis, and by a pathologist, Dr. David Caudell, in a blinded manner.
In order to assess renal disease, kidney sections were embedded in paraffin and stained by PAS. […] NZB/W mice treated with DMSO alone had thickened, irregular glomerular basement membranes, increased cellularity, fibrosis and crescent formation (see FIG. 11 A). […] Sections were assessed for glomerular proliferation, inflammation, number of nuclei per glomerulus, crescent formation, and fibrosis by a blinded pathologist, and a glomerular score (0-4) was assigned. NZB/W mice that were treated with the vehicle control alone received an average score of 4 compared to an average score of 2 from mice that received the high-dose of ACY-738 (FIG. 11 C).

[6] = NZB/W mice after euthanization at 38 weeks, 5 and 20 mg/kg, concentration dependent
[7] = NZB/W mice, 5 and 20 mg/kg, dose-dependent
[8] = 5 mg/kg, vs DMSO-treated controls
[9] = 16 weeks of treatment, dose not stated

O=C(NO)c1cnc(NC2(c3ccccc3)CC2)nc1 [ACY-738]
spleen weight (NZB/W mice [1]; [6]): decreased
spleen: body weight ratio (NZB/W mice [1]; [6]): decreased
body weight (NZB/W mice [1]; NZB/W mice, 22-38 weeks-of-age, vehicle mice lost weight): increased
survival (NZB/W mice [1]; NZB/W mice, high (20 mg/kg) or low (5 mg/kg) dose, to 38 weeks-of-age, half of vehicle mice died): survived to the completion of the study
proteinuria (NZB/W mice [1]; NZB/W mice, high dose 20 mg/kg, 22-38 weeks-of-age, 20 mg/kg): prevented proteinuria from increasing; also recorded: significantly attenuated
proteinuria (NZB/W mice [1]; NZB/W mice, low dose 5 mg/kg, 22-38 weeks-of-age): gradually increased
sera IgG2b level ([2]; NZB/W mice at 38 weeks-of-age): significantly increased
sera total IgM level ([2]; NZB/W mice at 38 weeks-of-age): slightly increased; also recorded: no effect
sera anti-dsDNA ([2]; NZB/W mice, 5 mg/kg, vs vehicle control, p<0.05): significant decrease
sera anti-dsDNA ([2]; NZB/W mice, 20 mg/kg (high dose), 38 weeks-of-age, 16 weeks of treatment, 20 mg/kg): prevent an increase in anti-dsDNA; also recorded: more pronounced
sera IgG2a level [2, 7]: significantly decreased
sera total IgG level [2, 7]: significantly decreased
reduction of glomerular IL-6 mRNA level [3, 8]: more than 50%
reduction of glomerular IL-10 mRNA level [3, 8]: more than 50%
glomerular IL-6 mRNA level ([3]; 20 mg/kg): non-detectable levels
glomerular IL-10 mRNA level ([3]; 20 mg/kg): non-detectable levels
glomerular TGF-β mRNA ([3]; 5 and 20 mg/kg, dose-dependent): decreased
glomerular C3 deposition (score 0-4, fluorescence) ([4]; 5 mg/kg, 5 mg/kg): slight decrease; also recorded: no significant effect
glomerular IgG deposition (score 0-4, fluorescence) ([4]; 5 mg/kg, 5 mg/kg): slight decrease; also recorded: no significant effect
glomerular C3 deposition (score 0-4, fluorescence) ([4]; 20 mg/kg (high dose), 20 mg/kg): significantly decreased
glomerular IgG deposition (score 0-4, fluorescence) ([4]; 20 mg/kg (high dose), 20 mg/kg): significantly decreased
glomerular C3 deposition level [4, 9]: significantly decreased
glomerular IgG deposition level [4, 9]: significantly decreased
kidney pathology (NZB/W mice [5]; 5 mg/kg, PAS-stained sections): did not significantly alter
SLE renal pathology (NZB/W mice [5]; 20 mg/kg, PAS-stained sections, lack of fibrosis and crescent bodies): significantly reduced
average glomerular score (0-4) (NZB/W mice [5]; high dose (20 mg/kg), vehicle control average score 4): 2
